Data reported in US20110066134A1, “Controlling Drug Transport and Current in Iontophoretic Onychomycosis Treatment” (Nitric Biotherapeutics, Inc., priority 2009, published 2011).
“And” between values parts separate entries of the source, which are not always exact repeats. Equal entries are not always repeated.

Tests used:
[1] = Cadaver toe delivery testing: iontophoretic terbinafine loading into nail, nail bed and surrounding tissue; type: in vitro ADME
Description: The results of drug loading experiments in cadaver toes reported by Nair [Nair et al., 2009, Pharm Res. 26(9):2194-201] were compared with current measurements made using the current test fixture of FIG. 1 and models for the two tissue groups. The experiments disclosed herein were conducted to determine 1) if a drug delivery gradient existed in masked drape applications, and how that correlated with drug assays in cadaver toes; and 2) to determine the proportion of current flowing in soft tissue vs. into nail in cadaver toe delivery, and to compare that with drug loading found by Nair in the two tissue types. It is believed that the transfer efficiency is higher in nail than into soft tissue.
Cadaver Toe Delivery Testing: Six cadaver toes were soaked in physiologic saline prior to treatment. Each terbinafine loaded applicator type (masked drape and full drape) was placed on the toe and iontophoretic treatment of 0.5 mA for 20 min was delivered. Post treatment, the nails, and sections of nail bed and surrounding tissue, were excised and analyzed. The amount of loaded terbinafine was compiled for each section. The iontophoretic power source and general configuration for the applicator on the cadaver toe are depicted in FIGS. 2A and 2B. Additional details regarding methods used and experimental details for cadaver toe delivery tests can be found in [Nair et al., 2009, Pharm Res. 26(9):2194-201].
FIG. 3A depicts drug assay results from cadaver nails following iontophoresis using a masked drape applicator, while FIG. 3B depicts current measurements taken at the same current levels through cadaver nail into agarose. Terbinafine sample data was compiled allocating samples to the same relative spacing as current sensing nodes in the current test fixture of FIG. 1. […] Results of finite element analysis for essentially masked electrodes over tissue that illustrate gradients with higher resolution can also be seen as provided by Kresteva and Papazov [Krasteva et al., Biomed Eng Online. 2002 Dec. 16; 1:7].
where tx is the transport number, F is Faraday's constant, A is area of application and zx is charge. For a particular “membrane” or “tissue type”, tx is the ratio of (charge, mobility and drug concentration of the charge carrier) to the product of these for all charge carriers, i is current and vcx is an electroosmotic term. Rather than determine individual elements of Kalia's formula, an aggregate transport number of skin (tskin) and nail & nail bed (tnail) can be calculated, essentially aggregating the factors and segmenting them into soft tissue plus nail/nail bed.
Where l is the amount of drug loaded for skin or nail. For a given dose in uA-min, the amount of terbinafine loaded into cadaver nail & nail bed vs. cadaver skin vs. delivered dose and calculated transfer number is
ltotal=lskin+lnail,lskin=dskin×tskin and lnail=dnail×tnail in ug/mA-min, (5)
where dskin, dnail is the product of current through skin (or nail) and time (dose), tskin, tnail is an aggregate of all factors related to delivery into skin (or nail) and lskin, lnail is the amount of terbinafine loaded into skin (or nail).
Table III lists the areas of delivery, current and transfer number calculations for the 6 cadaver toe trials. FIG. 9 depicts the average transport numbers including values calculated for current (for reference), skin alone in Franz cell and Rat.

clinical = details: human, in vivo
Description: Both applicator designs were used in clinical studies, including clinical nail samples at various iontophoretic dose levels taken 24 hours post treatment. For an average dose of about 8 mA-min, drug amounts for masked drape clipping assays averaged about 423 ug/g and full drape clippings averaged about 842 ug/g. The clipping sizes and volumes varied (n=80, mean=[…], sd=1.8). The amount of drug found in nail clippings for the masked drape treatments appeared to be lower than expected given the higher current concentration in nail vs. levels found for the full drape treatments at a lower level of nail current.
It is believed that the lower drug levels found during the clinical study from nail clippings in the masked drape applications was the result of samples at the extremities of the nail. As contemplated herein, the presence of a drug delivery gradient is supported by the location of clinical nail samples, the results of current distribution modeling and the cadaver toe experiments.
For example, the current measurement and drug loading maps for cadaver nail and toe as depicted in FIG. 3 indicate a significant gradient. Drug loading at the periphery of the nail was about 26 to 77 times less than drug loading in the center of the nail. Nail clippings for the masked drape group in the clinical studies provided herein were taken about 24 hours post treatment from the distal nail. Samples varied in size and volume, but averaged about 1.8 mm long. This size and location corresponds with the nail sampling performed in the cadaver toe experiments in the category of “peripheral 2” or “remaining” and depicted in FIG. 3A in about the 9 to 12 mm range. The current levels predicted by the model in the same areas correlate well with drug distribution samples, r=0.998, p=0.000.
Applying the cadaver transfer number for nail vs. skin to the in-vivo results yields an estimate for nail and drug delivered for both tissues (based upon resistance ratios calculated from measured voltages during the clinical study.)
FIG. 10 depicts the projected delivery of terbinafine into skin and nail for full drape using cadaver transfer number calculation. The mean level of terbinafine estimated to have been delivered with full drape treatments to patients in the clinical studies using this method is about 12.4 ug skin, 9.4 ug nail, as compared with a mean of about 15 ug skin and 14 ug nail for cadaver toes.

[2] = cadaver toe, full drape, 0.5 mA for 20 min, average of 6 trials
[3] = cadaver toe, full drape, 0.5 mA for 20 min, individual Trials 1-6

tf nail = (ug/cm^2)/(dose/cm^2), Avg [1, 2]: 5.180 (ug/cm^2)/(dose/cm^2)
tf skin = (ug/cm^2)/(dose/cm^2), Avg [1, 2]: 2.181 (ug/cm^2)/(dose/cm^2)
delivery into skin compared with nail & nail bed ([1]; cadaver toes, about 0.5 mA for 20 min, p=0.78, n=6): statistical equivalence
mean terbinafine delivered to nail ([1]; cadaver toes, full drape): ~14 µg
mean terbinafine delivered to skin ([1]; cadaver toes, full drape): about 15 ug
mean level of terbinafine estimated to have been delivered to nail (clinical): ~9.4 µg
mean level of terbinafine estimated to have been delivered to skin (clinical): about 12.4 ug
concentration at 24 h (clinical; Mean Nail Levels, Applicator Design Nail/Skin): 988000 ng/g
concentration at 24 h (clinical; average drug amount in full drape clippings): ~842000 ng/g
concentration at 24 h (clinical; average drug amount in masked drape clipping assays): ~423000 ng/g
Compound: CN(C/C=C/C#CC(C)(C)C)Cc1cccc2ccccc12 [terbinafine]
tf nail = (ug/cm^2)/(dose/cm^2) [1, 3]: 6.358 (ug/cm^2)/(dose/cm^2) and 7.438 (ug/cm^2)/(dose/cm^2) and 3.805 (ug/cm^2)/(dose/cm^2) and 2.328 (ug/cm^2)/(dose/cm^2) and 3.917 (ug/cm^2)/(dose/cm^2) and 7.237 (ug/cm^2)/(dose/cm^2)
tf skin = (ug/cm^2)/(dose/cm^2) [1, 3]: 1.745 (ug/cm^2)/(dose/cm^2) and 1.632 (ug/cm^2)/(dose/cm^2) and 1.975 (ug/cm^2)/(dose/cm^2) and 2.368 (ug/cm^2)/(dose/cm^2) and 1.961 (ug/cm^2)/(dose/cm^2) and 3.403 (ug/cm^2)/(dose/cm^2)
aggregate transport number for the nail-only application compared with nail in the full drape application ([1]; cadaver toe, n=4, p=0.032): less than the factor for nail in the full drape application
